The test system of experiment [1] is IFN-γ. Also noted: species or system C57BL/6 mice. Particulars: mouse, in vivo.
The subject of experiment [2] is IAV A/PR/8/34. Also noted: species or system C57BL/6 mice. Particulars: mouse, in vivo.
Experiment [3] relates to IAV A/PR/8/34. Also noted: species or system C57BL/6 mice. Particulars: mouse, in vivo. The source holds these as a separate data set.
Experiment [4] relates to RANTES. In kind it is cell-based, human.
For another experiment, the system named is IAV A/PR/8/34 (H1N1). The format is cell-based, influenza virus type A.
A further experiment deals with neutrophils. Also noted: species or system C57BL/6 mice. Particulars: mouse, in vivo.
The test system of experiment [5] is RANTES. Also noted: species or system C57BL/6 mice. Particulars: mouse, in vivo.
Experiment [6] concerns IFN-γ. The format is cell-based, human.
The target of another experiment is T1, PAR2 (Homo sapiens, UniProt P55085).
T1 construct: endogenous in cells; host or cells: A549 (human alveolar type II epithelial cell line, ATCC)
T1 sequence (P55085 26-397): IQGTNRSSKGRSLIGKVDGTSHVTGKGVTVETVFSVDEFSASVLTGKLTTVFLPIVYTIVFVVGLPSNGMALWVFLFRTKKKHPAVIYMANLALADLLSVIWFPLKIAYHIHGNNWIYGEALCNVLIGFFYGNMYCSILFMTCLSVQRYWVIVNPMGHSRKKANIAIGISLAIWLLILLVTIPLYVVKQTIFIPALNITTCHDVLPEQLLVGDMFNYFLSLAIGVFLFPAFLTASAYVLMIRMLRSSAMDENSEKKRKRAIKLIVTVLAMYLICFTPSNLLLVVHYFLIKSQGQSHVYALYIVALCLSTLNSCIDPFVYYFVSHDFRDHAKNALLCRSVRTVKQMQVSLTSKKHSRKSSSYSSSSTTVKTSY
In words: Flow cytometry of PAR2 expression in A549 cells after PAR2 stimulation. The format is cell-based. Particulars: 250 μM peptide, 24 hours post-stimulation, permeabilized cells. Here is the method: A549 cells were infected or not at a MOI of 0.001 for 24 hours and flow cytometry experiments were done on permeabilized cells, as previously described (Riteau B. et al. 2001; Riteau B. et al. 2001), using the SAM11 anti-PAR2 antibody (Santa-cruz biotechnology, Inc, USA). PAR2 stimulation of A549 cells was performed using 250 μM of PAR2 specific activating peptide SLIGRL-NH2 and flow cytometry experiment was performed 24 hours post-stimulation.
Background: Flow cytometry measures light scatter and fluorescence of single cells or particles in a stream.

Experiment [7] concerns IAV A/PR/8/34. The experiment in a line: Survival and weight loss of IAV-infected IFN-γ-deficient mice treated with peptide. Particulars: 50 000 pfu/mice.
Source text: Six-weeks-old IFN-γ-deficient mice (background C57BL/6, n=36) obtained from the INRA “Experimental Infectiology Platform” of Tours (France) were anaesthetized once and infected intranasally with 50 000 pfu of A/PR/8/34 in the presence or absence of SLIGRL-NH2. C57BL/6J/WT mice (n=20) were used as control. Infected mice were then monitored daily for survival.
Experiment [8] has as its system IAV A/PR/8/34. Also noted: species or system C57BL/6 mice. Particulars: mouse, in vivo. The source holds these as a separate data set.

Ends that are not written are not given here.

LRGILS-NH2 [reference compound]: in the experiment on IFN-γ [1], the “IFN-γ release in BAL after IAV infection” value is on record as “No significant increase”. For the same substance, in the experiment with IAV A/PR/8/34 [2], the survival rate result is “had no effect”. The “overall appearance of lungs (photographic pictures)” value in the experiment with IAV A/PR/8/34 [3] is “severely injured”.

As to SLIGRL-NH2, in the experiment with RANTES [4], the RANTES level entry is “at the limit of detection” and the RANTES production result was “significantly inhibited”. Moreover, in the experiment on IFN-γ [1], the “IFN-γ release in BAL after IAV infection” value is listed as “significant increase” and the “release of IFN-γ in BAL” value was “no effect”. Also, in the experiment on IAV A/PR/8/34 (H1N1), the “inhibition of IAV replication in the presence of anti-IFNγ neutralizing antibody” value was “could be reversed” and the virus production entry is reported as “produced less virus”. In addition, in the experiment on IAV A/PR/8/34 [2], the “protection stable, inhibiting mortality until” value is at least 12 days and the survival rate entry is recorded as “protected mice from death, in a dose-dependent manner”. Besides, in the experiment with neutrophils, the “influx of neutrophils in BAL” value is reported as “significantly decreased” and the “number of neutrophils in BAL at 48-hours compared to level at 24-hours” value is on record as “significantly increased”. For the same substance, in the experiment with RANTES [5], the “IAV-induced increase of RANTES in BAL” value is given as “significantly inhibited” and the “release of RANTES in BAL” value is “three-fold increase”. Further, in the experiment on IFN-γ [6], the IFN-γ level entry is “at the limit of detection”, the IFN-γ release entry is “induced IFN-γ release” and the “time of peak IFN-γ release” value is 8 hours post-infection. In the experiment with PAR2, the “effect on PAR2 synthesis” value was “had no effect”. Also, in the experiment with IAV A/PR/8/34 [7], the “kinetic of weight loss after IAV infection” value is given as “did not modify” and the protection from death entry is “did not protect mice from death”. Also, the “histopathologic examination of the lungs” value in the experiment with IAV A/PR/8/34 [3] was “lack evidence of pathology”. In addition, in the experiment with IAV A/PR/8/34 [8], the “decreased infectious virus load in lungs at lower doses of IAV infection” value is reported as “also observed” and the “infectious virus load in lungs” value is listed as “significantly decreased”.

Source of the values: patent US9125861B2, “PAR2 agonists for use in the treatment or prevention of influenza virus type A infections” (Institut National de la Sante et de la Recherche Medicale …, priority 2009, dated 2015).
